# Laboratory results taken from PubChem BioAssay (NCI).
#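 Each compound was tested at five concentrations against cells in 96-well plates for 48 hours. GI50 = concentration required for 50% inhibition of growth. TGI is the concentration that stops growth completely.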
# How the values were obtained:
# Assay in all cases: DTP human tumour cell line panel, 48 h
# [1] = system: RPMI-8226 leukemia
# [2] = system: OVCAR-5 ovarian
# [3] = system: SNB-19 CNS
# [4] = system: SF-268 CNS
# [5] = system: NCI-H522 lung
# [6] = system: SN12C renal
# [7] = system: MALME-3M melanoma
# [8] = system: OVCAR-4 ovarian
# [9] = system: NCI-H23 lung
# [10] = system: HT29 colon
# [11] = system: CCRF-CEM leukemia
# [12] = system: MCF7 breast
# [13] = system: SF-295 CNS
# [14] = system: LOX IMVI melanoma
# [15] = system: A549 NSCLC
# [16] = system: MDA-MB-231 breast
# [17] = system: UO-31 renal
# [18] = system: SK-OV-3 ovarian
# [19] = system: SW-620 colon
# [20] = system: PC-3 prostate
# [21] = system: HCT-116 colon
# [22] = system: HOP-62 NSCLC
# [23] = system: RXF 393 renal
# [24] = system: MOLT-4 leukemia
# [25] = system: HCT-15 colon
# [26] = system: SNB-75 CNS
# [27] = system: UACC-62 melanoma
# [28] = system: TK-10 renal
# [29] = system: K-562 leukemia
# [30] = system: KM12 colon
# [31] = system: SF-539 CNS
# [32] = system: HS 578T breast
# [33] = system: ACHN renal
# [34] = system: EKVX NSCLC
# [35] = system: OVCAR-8 ovarian
# [36] = system: HCC-2998 colon
# [37] = system: OVCAR-3 ovarian
# [38] = system: DU-145 prostate
# [39] = system: UACC-257 melanoma
# [40] = system: M14 melanoma
# [41] = system: IGROV1 ovarian
# [42] = system: SK-MEL-2 melanoma
# [43] = system: NCI-H226 lung
# [44] = system: CAKI-1 renal
# [45] = system: SR leukemia
# [46] = system: NCI/ADR-RES ovarian
# [47] = system: MDA-MB-435
# [48] = system: U251 CNS
# [49] = system: HOP-92 NSCLC
# [50] = system: A498 renal
# [51] = system: SK-MEL-5 melanoma
# [52] = system: 786-0 renal
# [53] = system: T-47D breast
# [54] = system: SK-MEL-28 melanoma
# [55] = system: COLO 205 colon
# [56] = system: NCI-H460 lung
# [57] = system: HL-60(TB) leukemia
# [58] = system: BT-549 breast
structure (smiles),measurement,setting,value
O=C1NC(=O)c2c1c1c3ccccc3ccc1c1[nH]c3ccccc3c21,GI50,[1],500 nM
same,TGI,[1],> 100000 nM
same,GI50,[2],1630 nM
same,TGI,[2],> 100000 nM
same,GI50,[3],2510 nM
same,TGI,[3],17000 nM
same,GI50,[4],1430 nM
same,TGI,[4],34300 nM
same,GI50,[5],568 nM
same,TGI,[5],15600 nM
same,GI50,[6],516 nM
same,TGI,[6],> 88200 nM
same,GI50,[7],207 nM
same,TGI,[7],6010 nM
same,GI50,[8],1790 nM
same,TGI,[8],19600 nM
same,GI50,[9],699 nM
same,TGI,[9],> 100000 nM
same,GI50,[10],631 nM
same,TGI,[10],> 91100 nM
same,GI50,[11],457 nM
same,TGI,[11],> 68700 nM
same,GI50,[12],327 nM
same,TGI,[12],> 100000 nM
same,GI50,[13],1610 nM
same,TGI,[13],14600 nM
same,GI50,[14],1380 nM
same,TGI,[14],> 100000 nM
same,GI50,[15],971 nM
same,TGI,[15],> 100000 nM
same,GI50,[16],1150 nM
same,TGI,[16],> 100000 nM
same,GI50,[17],239 nM
same,TGI,[17],21900 nM
same,GI50,[18],354 nM
same,TGI,[18],6430 nM
same,GI50,[19],717 nM
same,TGI,[19],> 100000 nM
same,GI50,[20],420 nM
same,TGI,[20],30400 nM
same,GI50,[21],852 nM
same,TGI,[21],> 100000 nM
same,GI50,[22],925 nM
same,TGI,[22],17600 nM
same,GI50,[23],317 nM
same,TGI,[23],1840 nM
same,GI50,[24],444 nM
same,TGI,[24],7480 nM
same,GI50,[25],593 nM
same,TGI,[25],> 100000 nM
same,GI50,[26],4020 nM
same,TGI,[26],16600 nM
same,GI50,[27],749 nM
same,TGI,[27],> 62300 nM
same,GI50,[28],486 nM
same,TGI,[28],11400 nM
same,GI50,[29],543 nM
same,TGI,[29],> 91100 nM
same,GI50,[30],115 nM
same,TGI,[30],> 100000 nM
same,GI50,[31],663 nM
same,TGI,[31],35700 nM
same,GI50,[32],1080 nM
same,TGI,[32],> 31500 nM
same,GI50,[33],336 nM
same,TGI,[33],13200 nM
same,GI50,[34],2040 nM
same,TGI,[34],> 58400 nM
same,GI50,[35],1290 nM
same,TGI,[35],24800 nM
same,GI50,[36],7650 nM
same,TGI,[36],> 100000 nM
same,GI50,[37],2430 nM
same,TGI,[37],19300 nM
same,GI50,[38],960 nM
same,TGI,[38],> 100000 nM
same,GI50,[39],3740 nM
same,TGI,[39],> 80400 nM
same,GI50,[40],322 nM
same,TGI,[40],> 100000 nM
same,GI50,[41],529 nM
same,TGI,[41],> 56200 nM
same,GI50,[42],1200 nM
same,TGI,[42],> 100000 nM
same,GI50,[43],641 nM
same,GI50,[44],228 nM
same,TGI,[44],11700 nM
same,GI50,[45],169 nM
same,TGI,[45],2920 nM
same,GI50,[46],1570 nM
same,TGI,[46],> 87000 nM
same,GI50,[47],247 nM
same,TGI,[47],> 100000 nM
same,GI50,[48],1060 nM
same,TGI,[48],15700 nM
same,GI50,[49],857 nM
same,TGI,[49],7420 nM
same,GI50,[50],491 nM
same,TGI,[50],2710 nM
same,GI50,[51],1160 nM
same,TGI,[51],26600 nM
same,GI50,[52],1200 nM
same,TGI,[52],16600 nM
same,GI50,[53],524 nM
same,TGI,[53],> 70900 nM
same,GI50,[54],911 nM
same,TGI,[54],> 100000 nM
same,GI50,[55],1300 nM
same,TGI,[55],> 100000 nM
same,GI50,[56],400 nM
same,TGI,[56],24400 nM
same,GI50,[57],233 nM
same,TGI,[57],> 100000 nM
same,GI50,[58],279 nM
same,TGI,[58],2330 nM
